Test results taken from paper PMC6943441, “The Meta-Position of Phe^4 in Leu-Enkephalin Regulates Potency, Selectivity, Functional Activity, and Signaling Bias at the Delta and Mu Opioid Receptors” (Molecules, 2019).
Where two headings read alike, the source gives them in different places. Square brackets hold non-standard residues; d marks the D form. Peptide text beside a SMILES is read from it. 2Pal = N[C@@H](Cc1ccccn1)C(=O)O; 4Pal = N[C@@H](Cc1ccncc1)C(=O)O

Assays:
HA-mouse µOR = target: T1, HA-mouse µOR (Mus musculus, UniProt P42866); test: cAMP GloSensor inhibition assay in HEK 293 cells; assay type: cell-based; conditions: for IC50: HEK 293, forskolin 30 µM; for LogR (µOR) cAMP: operational model Log R (τ/KA); for cAMP µOR Efficacy (%+SD): relative to DAMGO = 100
T1 construct: HA; expressed in transfected cells; host or cells: HEK 293
Description: (§2) In brief, for cAMP inhibition assays HEK 293 (Life Technologies, Grand Island, NY, USA) cells were transiently transfected in a 1:3 ratio with FLAG-mouse δOR, or HA-mouse µOR and pGloSensor22F-cAMP plasmids (Promega, Madison, WI, USA) using Xtremegene9 (Sigma). Two days post-transfection cells (20,000 cells/well, 7.5 µL) were seeded in low volume Greiner 384-well plates (#82051-458, VWR, Batavia, IL, USA) and were incubated with Glosensor reagent (Promega, 7.5 µL, 2% final concentration) for 90 min at room temperature. […] For β-arrestin recruitment assays, CHO-human µOR PathHunter β-arrestin 2 cells or CHO-human δOR PathHunter β-arrestin 2 cells (DiscoverX, Fremont, CA, USA) were plated (2,500 cells/well, 10 µL) one day prior to stimulation with 2.5 µL drug solution for 90 min at 37 °C/5% CO2, after which cells were incubated with 6 µL cell PathHunter assay buffer (DiscoverX) for 60 min at room temperature as per the manufacturer’s protocol. Luminescence for each of these assays was measured using a FlexStation3 plate reader (Molecular Devices, Sunnyvale, CA, USA).
(§3) All data are presented as means ± standard error of the mean, and analysis was performed using GraphPad Prism 8 software (GraphPad Software, La Jolla, CA). For in vitro assays, nonlinear regression was conducted to determine pIC50 (cAMP) or pEC50 (β-arrestin 2 recruitment). […] The averages of each independent run were counted as a single experiment and combined to provide a composite curve in favor of providing a ‘representative’ curve. In each experimental run, a positive control/reference compound was utilized to allow the data to be normalized and to calculate the log bias value. A minimum of three independent values were obtained for each compound in each of the cellular assays.

µOR [1] = target: T2, µOR (Homo sapiens, UniProt P35372); test: Bias factor calculation (operational model, cAMP vs β-arrestin 2); conditions: DAMGO as reference, >1 = more G protein-biased
Description: Bias factors were calculated using the operational model equation in Prism 8 to calculate Log R (τ/KA) (Table S2) as previously described [12]. […] A bias factor > 1 meant that the agonist was more G protein-biased than the reference compound; A bias factor < 1 meant that the agonist was less G protein-biased than the reference compound.

Rat plasma stability = conditions: for Degradation Products (First Appearance): rat plasma, UPLC-mass spectrometry, time of first appearance in parentheses; for half-life: rat, plasma
Description: Peptides were synthesized using an Aapptec Focus XC automated peptide synthesizer coupled with a heating system using a solid phase peptide synthesis protocol using Fmoc chemistry. Preparative RP-HPLC was performed using an appropriate column and solvent system (described below) and final purity of peptides was determined by UV area % from UPLC analysis. Peptides were purified by Teledyne ISCO EZ Prep system on RediSep® C18 Prep column (30 × 250 mm, 100 Å). […] Plasma stability was also assessed using the above UPLC column and solvent gradient program using a Waters H class Plus Acquity UPLC system coupled with a QDa detector using protocol B.
Sprague Dawley rat plasma containing K2-ethylenediaminetetraacetic acid (Innovative Research, MI, USA) was transferred into 300 µL aliquots and stored at −20 °C until use. […] After adding analog, an aliquot of the mixture was removed at each indicated time point (0, 5, 10, 15, 20, 30, 60, 120, 240 min) and immediately quenched with 100 μL of a methanol solution containing 20 μM Fmoc-Leu-OH as an internal standard. […] Then, the filtrate was transferred into vials and a 5 μL sample of the resulting solution was analyzed on an UPLC system coupled with a QDa detector. […] Determination of half-life (t1/2) was carried out by using the GraphPad Prism one-phase decay method.

FLAG-mouse δOR = target: T3, FLAG-mouse δOR (Mus musculus, UniProt P32300); test: cAMP GloSensor inhibition assay in HEK 293 cells; assay type: cell-based; conditions: for IC50: HEK 293, forskolin 30 µM; for cAMP δOR Efficacy (%+SD): relative to Leu-enkephalin = 100; for LogR (δOR) cAMP: operational model Log R (τ/KA); for G Protein Selectivity (δOR vs µOR): cAMP potency δOR vs µOR
T3 construct: FLAG; expressed in transfected cells; host or cells: HEK 293
Description: as §2, §3

µOR [2] = target: T2, µOR; test: Competition radioligand binding, [3H]DAMGO
Description: (§1) Next, 100 µL of membrane suspension containing 7 µg protein was added to the agonist wells and incubated for 90 min at room temperature. The reaction mixture was then filtered over a GF-B filter plate (Perkin Elmer) followed by four quick washes with ice-cold 50 mM Tris HCl. The plate was dried overnight, after which 50 µL scintillation fluid (Ultimagold uLLT) was added and radioactivity was counted on a Packard TopCount NXT scintillation counter. All working solutions were prepared in a radioligand assay buffer containing 50 mM Tris HCl, 10 mM MgCl2, and 1 mM ethylenediaminetetraacetic acid at pH 7.4.

µOR [3] = target: T2, µOR; test: cell-based; assay type: cell-based
Description: as §2, §3

δOR [4] = target: T4, δOR (Homo sapiens, UniProt P41143); test: PathHunter β-arrestin 2 recruitment assay in CHO cells
Description: as §2, §3

δOR [5] = target: T4, δOR; test: Competition radioligand binding, [3H]DPDPE; conditions: for Binding Selectivity (δOR vs µOR): ratio of Ki values
Description: as §1

[6] = CHO PathHunter, read-out: β-Arrestin 2 EC50 (nM) µOR

T2 sequence (P35372 whole entry): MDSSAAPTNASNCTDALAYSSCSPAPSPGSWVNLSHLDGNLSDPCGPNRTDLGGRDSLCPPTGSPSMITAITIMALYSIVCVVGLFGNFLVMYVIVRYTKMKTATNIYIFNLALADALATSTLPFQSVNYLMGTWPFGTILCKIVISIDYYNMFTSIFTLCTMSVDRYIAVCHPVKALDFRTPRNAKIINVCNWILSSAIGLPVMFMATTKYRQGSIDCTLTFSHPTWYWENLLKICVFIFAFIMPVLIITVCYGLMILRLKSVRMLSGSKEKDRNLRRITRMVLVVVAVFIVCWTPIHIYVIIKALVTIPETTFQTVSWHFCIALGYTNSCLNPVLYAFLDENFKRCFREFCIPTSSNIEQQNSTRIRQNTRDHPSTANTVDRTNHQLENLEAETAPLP
T4 sequence (P41143 whole entry): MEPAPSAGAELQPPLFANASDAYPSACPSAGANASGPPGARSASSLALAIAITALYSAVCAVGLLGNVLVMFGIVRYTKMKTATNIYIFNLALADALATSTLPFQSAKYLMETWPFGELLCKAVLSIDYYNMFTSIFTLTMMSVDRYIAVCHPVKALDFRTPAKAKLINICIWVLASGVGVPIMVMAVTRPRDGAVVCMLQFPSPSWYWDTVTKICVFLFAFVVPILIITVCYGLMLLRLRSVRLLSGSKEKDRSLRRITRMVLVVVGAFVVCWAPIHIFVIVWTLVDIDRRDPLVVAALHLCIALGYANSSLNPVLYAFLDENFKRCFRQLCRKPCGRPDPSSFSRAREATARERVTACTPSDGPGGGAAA
T3 sequence (P32300 whole entry): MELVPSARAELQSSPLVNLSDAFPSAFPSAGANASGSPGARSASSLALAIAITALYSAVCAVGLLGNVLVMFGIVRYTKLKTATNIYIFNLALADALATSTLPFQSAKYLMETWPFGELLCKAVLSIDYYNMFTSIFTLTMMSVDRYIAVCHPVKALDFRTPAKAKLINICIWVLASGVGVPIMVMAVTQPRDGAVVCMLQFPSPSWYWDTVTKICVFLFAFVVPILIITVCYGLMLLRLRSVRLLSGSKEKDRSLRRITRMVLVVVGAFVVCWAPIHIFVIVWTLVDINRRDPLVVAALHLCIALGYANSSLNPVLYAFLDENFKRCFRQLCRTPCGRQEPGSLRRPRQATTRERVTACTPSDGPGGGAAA
T1 sequence (P42866 whole entry): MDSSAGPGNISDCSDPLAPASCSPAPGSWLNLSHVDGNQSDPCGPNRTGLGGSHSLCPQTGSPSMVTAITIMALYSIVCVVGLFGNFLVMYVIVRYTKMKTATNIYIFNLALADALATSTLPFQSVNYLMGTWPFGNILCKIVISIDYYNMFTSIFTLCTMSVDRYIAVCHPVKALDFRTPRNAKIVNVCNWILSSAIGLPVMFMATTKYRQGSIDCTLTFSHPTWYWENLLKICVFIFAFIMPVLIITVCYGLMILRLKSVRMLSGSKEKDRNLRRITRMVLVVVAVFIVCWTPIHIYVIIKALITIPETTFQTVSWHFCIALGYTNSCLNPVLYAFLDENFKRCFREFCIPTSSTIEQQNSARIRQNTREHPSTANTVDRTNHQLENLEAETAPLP

| Compound | IC50 (HA-mouse µOR; read-out: cAMP IC50 (nM) µOR) [nM] | LogR (µOR) cAMP (HA-mouse µOR) | cAMP µOR Efficacy (%+SD) (HA-mouse µOR) [%] | Bias Factor µOR (DG = Ref) (µOR [1]) | Degradation Products (First Appearance) (Rat plasma stability) | half-life (Rat plasma stability) [min] | IC50 (FLAG-mouse δOR; read-out: cAMP IC50 (nM) δOR) [nM] | cAMP δOR Efficacy (%+SD) (FLAG-mouse δOR) [%] | Ki (µOR [2]) [nM] | EC50 (µOR [3]) [nM] | LogR (µOR) β-arr2 (µOR [3]) | β-Arrestin 2 µOR Efficacy (% + SEM) (µOR [3]) [%] | LogR (δOR) cAMP (FLAG-mouse δOR) | also measured |
| --- | --- | --- | --- | --- | --- | --- | --- | --- | --- | --- | --- | --- | --- | --- |
| CC(C)C[C@H](NC(=O)[C@H](Cc1cccc(I)c1)NC(=O)CNC(=O)CNC(=O)[C@@H](N)Cc1ccc(O)cc1)C(=O)O [Compound 1d] | 4.27 | 8.0 | 94 ± 11 | 3.2 | Gly-Gly-(meta-I)Phe-Leu (5 min) (meta-I)Phe-Leu (15 min) | 13.2 | 0.025 | 97 ± 4 | 0.14 | 46.8 | 6.6 | 70 ± 3 | – | – |
| CC(C)C[C@H](NC(=O)[C@H](Cc1cccc(C#N)c1)NC(=O)CNC(=O)CNC(=O)[C@@H](N)Cc1ccc(O)cc1)C(=O)O [Compound 1h] | 12 | 7.5 | 92 ± 13 | 5.4 | Gly-Gly-(meta-CN)Phe-Leu (5 min) (meta-CN)Phe-Leu (20 min) | 33 | 0.35 | 100 ± 3 | 0.3 | 158 | 5.9 | 68 ± 4 | 9.3 | – |
| Cc1cccc(C[C@H](NC(=O)CNC(=O)CNC(=O)[C@@H](N)Cc2ccc(O)cc2)C(=O)N[C@@H](CC(C)C)C(=O)O)c1 [Compound 1e] | 3.72 | 8.1 | 85 ± 10 | 11.5 | Gly-Gly-(meta-Me)Phe-Leu (5 min) (meta-Me)Phe-Leu (20 min) | 39.5 | 0.039 | 92 ± 8 | 0.14 | 186 | 6.1 | 71 ± 3 | 10 | – |
| CC(C)C[C@H](NC(=O)[C@H](Cc1ccccn1)NC(=O)CNC(=O)CNC(=O)[C@@H](N)Cc1ccc(O)cc1)C(=O)O [Compound 1j] (H-YGG[2Pal]L-OH; N-terminus and C-terminus assumed) | 40.7 | – | – | – | (2-pyridyl)Ala-Leu (5 min) Gly-Gly-(2-pyridyl)Ala-Leu (30 min) | 26.8 | 4.57 | – | 9.12 | – | – | – | – | EC50 (δOR [4]): 100 nM; Ki (δOR [5]): 6.17 nM; Binding Selectivity (δOR vs µOR) (δOR [5]): 1.5; G Protein Selectivity (δOR vs µOR) (FLAG-mouse δOR): 8.9; EC50 (µOR [3]; [6]): 1350 nM |
| CC(C)C[C@H](NC(=O)[C@H](Cc1ccncc1)NC(=O)CNC(=O)CNC(=O)[C@@H](N)Cc1ccc(O)cc1)C(=O)O [Compound 1l] (H-YGG[4Pal]L-OH; N-terminus and C-terminus assumed) | 302 | – | – | – | (4-pyridyl)Ala-Leu (10 min) Gly-Gly-(4-pyridyl)Ala-Leu (30 min) | 78.1 | 30.2 | – | 38.9 | – | – | – | – | EC50 (δOR [4]): 398 nM; Ki (δOR [5]): 20.4 nM; Binding Selectivity (δOR vs µOR) (δOR [5]): 1.9; G Protein Selectivity (δOR vs µOR) (FLAG-mouse δOR): 10; EC50 (µOR [3]; [6]): 37200 nM |
| COc1cccc(C[C@H](NC(=O)CNC(=O)CNC(=O)[C@@H](N)Cc2ccc(O)cc2)C(=O)N[C@@H](CC(C)C)C(=O)O)c1 [Compound 1f] | 8.12 | 7.4 | 87 ± 5 | – | Gly-Gly-(meta-OMe)Phe-Leu (5 min) (meta-OMe)Phe-Leu (20 min) | 46.1 | 0.14 | 98 ± 10 | – | 589 | 5.6 | 67 ± 3 | 9.8 | Bias Factor µOR (DG = Ref) (µOR [1]; listed as 1f (OMe)): 8.4 |
| CC(C)C[C@H](NC(=O)[C@H](Cc1ccccc1)NC(=O)CNC(=O)CNC(=O)[C@@H](N)Cc1ccc(O)cc1)C(=O)O [Leu^5-enkephalin, Tyr^1-Gly^2-Gly^3-Phe^4-Leu^5, reference compound] | – | – | 100 | – | Gly-Gly-Phe-Leu (5 min) Phe-Leu (10 min) | – | – | 100 | – | – | – | – | – | cAMP µOR Efficacy (%+SD) (HA-mouse µOR; listed as Leu-enkephalin): 100 ± 9% |
| CC(C)C[C@H](NC(=O)[C@H](Cc1cccc(F)c1)NC(=O)CNC(=O)CNC(=O)[C@@H](N)Cc1ccc(O)cc1)C(=O)O [Compound 1a, H2N-Tyr-Gly-Gly-(meta-F)Phe-Leu-OH] | – | 8.0 | 98 ± 6 | 22.2 | Gly-Gly-(meta-F)Phe-Leu (5 min) (meta-F)Phe-Leu (60 min) | 82.3 | 0.39 | 95 ± 6 | – | 575 | 5.8 | 75 ± 13 | 9.4 | IC50 (FLAG-mouse δOR; read-out: cAMP pIC50 ± SEM (δOR) (converted)): 0.339 nM |
| C[C@@H](NC(=O)[C@@H](N)Cc1ccc(O)cc1)C(=O)NCC(=O)N(C)[C@@H](Cc1ccccc1)C(=O)NCCO [DAMGO, (D-Ala^2, N-MePhe^4, Gly-ol) enkephalin, reference compound] | – | 7.8 | 100 | 1 | – | – | – | – | – | – | – | – | – | β-Arrestin 2 µOR Efficacy (% + SEM) (µOR [3]; relative to DAMGO = 100%): 100% |
| CC(C)C[C@H](NC(=O)[C@H](Cc1cccc([N+](=O)[O-])c1)NC(=O)CNC(=O)CNC(=O)[C@@H](N)Cc1ccc(O)cc1)C(=O)O [Compound 1i] | 49 | 7.2 | – | – | Gly-Gly-(meta-NO2)Phe-Leu (5 min) (meta- NO2)Phe-Leu (20 min) | 28.8 | 0.47 | 99 ± 6 | 0.98 | 537 | 5.3 | 60 ± 6 | 9.0 | Bias Factor µOR (DG = Ref) (µOR [1]; listed as 1i (NO2)): 11.1 |
| CC(C)C[C@H](NC(=O)[C@H](Cc1cccc(C(F)(F)F)c1)NC(=O)CNC(=O)CNC(=O)[C@@H](N)Cc1ccc(O)cc1)C(=O)O [Compound 1g] | 2.45 | 8.1 | 90 ± 4 | 4.3 | Gly-Gly-(meta-CF3)Phe-Leu (5 min) (meta- CF3)Phe-Leu (30 min) | 44.5 | 0.11 | 92 ± 8 | – | 56.2 | 6.6 | 71 ± 3 | 9.7 | – |
| CC(C)C[C@H](NC(=O)[C@H](Cc1cccc(Br)c1)NC(=O)CNC(=O)CNC(=O)[C@@H](N)Cc1ccc(O)cc1)C(=O)O [Compound 1c, H2N-Tyr-Gly-Gly-(meta-Br)Phe-Leu-OH] | – | 8.1 | 104 ± 11 | 1.2 | Gly-Gly-(meta-Br)Phe-Leu (5 min) (meta-Br)Phe-Leu (15 min) | 21.5 | 0.03 | 96 ± 4 | 0.13 | 35.5 | 7.2 | 79 ± 6 | 10.5 | IC50 (HA-mouse µOR; read-out: cAMP pIC50 ± SEM (µOR) (converted)): 10 nM |
| CC(C)C[C@H](NC(=O)[C@H](Cc1cccc(Cl)c1)NC(=O)CNC(=O)CNC(=O)[C@@H](N)Cc1ccc(O)cc1)C(=O)O [Compound 1b, H2N-Tyr-Gly-Gly-(meta-Cl)Phe-Leu-OH] | 30.2 | 7.5 | 99 ± 7 | 0.3 | Gly-Gly-(meta-Cl)Phe-Leu (5 min) (meta-Cl)Phe-Leu (30 min) | 37.8 | 0.022 | 94 ± 5 | – | 67.6 | 7.2 | 96 ± 8 | 10.6 | – |
